From patent US20090186839A1, “Model for studying the role of genes in chemoresistance” (Cold Spring Harbor Laboratory, priority 2003, published 2009)
pIC50: −log10 of the molar value. Where two headings read alike, the source gives them in different places.

Assays:
Eμ-myc/Akt lymphomas = assay: In vivo chemotherapy of mice bearing Akt lymphomas; design: species or system mouse
Text: (§4) Tumor cells were transplanted from the Akt-expressing tumors and from control tumors (Eμ-myc, arf^−/−, p53^+/+) into syngeneic, non-transgenic 6-10 week old C57BL/6 mice by tail vein injection [10^6 viable lymphoma cells in phosphate-buffered saline (PBS)] and recipient mice were monitored for tumor formation twice a week by palpation of the pre-scapular and cervical lymph-nodes. […] Following treatments, mice were monitored for immediate response and time to relapse by lymph node palpation and by blood smears (by tail artery bleeding) stained according to a modified Wright's protocol using the LeukoStat kit (Fisher Scientific, Pittsburgh, Pa.). The data were statistically evaluated.

[1] = tested on: Eμ-myc/ARF−/− control lymphomas; assay: In vivo chemotherapy of mice bearing control (ARF-null) lymphomas; design: species or system mouse; conditions: CTX 300 mg/kg i.p.
Text: as §4
A ‘complete remission’ (CR) was defined as absence of any palpable tumor and the absence of leukemia, as examined by blood smears. ‘Tumor free survival’ was defined as the time between treatment and reappearance of a well-palpable lymphoma (Schmitt, C. A., et al., “Genetic analysis of chemoresistance in primary murine lymphomas,” Nat. Med. 6: 1029-1035 (2000)). ‘Overall survival’ was defined as the time between treatment and progression to a terminal stage at which the animals were sacrificed. Tumor free and overall survival data were analyzed in the Kaplan-Meier format using the log-rank (Mantel-Cox) test for statistical significance. […]

Eμ-myc/PTEN+/− tumors = assay: In vivo chemotherapy of mice bearing PTEN+/− lymphomas; design: species or system mouse; conditions: for reversal of DXR resistance / sensitization to DXR: RAP 4 mg/kg, silvestrol 0.2 mg/kg daily 5 days i.p.
Procedure: Primary tumors arising in Eμ-myc/PTEN+/− and Ep-myc/PTEN+/− mice were harvested and injected into C57BL/6 (non-transgenic) mice. Upon tumor formation of palpable secondary tumors, mice were treated with a single i.p. administration of drug. The treatment schedule included an injection with either DXR ([…] in 0.9% saline), CTX (300 mg/kg in 0.9% saline), RAP (4 mg/kg in 0.9% H2O with 5% PEG/TWEEN), or a combination thereof (d1: DXR or CTX, d2: DXR or CTX and RAP, d3-5: DXR pr CTX). Mice were then palpated twice weekly for disappearance or recurrence of tumors. Data are presented as Kaplan-Meier plots in FIG. 19, and show the tumor free survival/time to relapse. Time to relapse for mice that were never tumor free was scored as ‘0’ days. […] The bottom panel has an equivalent analysis for treatment with CTX, RAP, and RAP+CTX combination.
(§1) Primary tumors arising in PTEN+/−Eμ-Myc mice were harvested and a total of 2×10^6 secondary lymphoma cells were injected into the tail veins of 6-8 week old female C57BL/6 (non-transgenic) mice. Upon tumor formation of palpable secondary tumors, mice were treated with i.p. administration of drug. The treatment schedule included an injection with DXR (once at 10 mg/kg), RAP (4 mg/kg daily for 5 days), or silvestrol (0.2 mg/kg daily for 5 days). RAP, DXR, and silvestrol were diluted in 5.2% PEG400/5.2% Tween 80 immediately prior to i.p. injection.
The ability of rocaglates to work in synergistic combination with other cytotoxic agents has not previously been tested. Silvestrol was therefore tested in combination with DXR, where silvestrol or RAP were administered once daily for 5 consecutive days, with DXR administered on day 2. Mice were then palpated twice weekly for the disappearance or recurrence of tumors.
Data are presented as Kaplan-Meier plots using the log-rank (Mantel-Cox) test for statistical significance (SigmaStat software) in FIG. 28, and show the tumor free survival/time to relapse. Time to relapse for mice that were never tumor free was scored as ‘0’ days. […]

Eμ-Myc/eIF4E lymphomas = assay: In vivo chemotherapy of mice bearing eIF4E lymphomas; design: species or system mouse; conditions: for animals that had developed terminal lymphoma / reversal of DXR resistance / sensitization to DXR: Eμ-Myc/eIF4E tumors, silvestrol 0.2 mg/kg daily 5 days i.p.; for animals that had developed terminal lymphoma: by the 40 day time point, DXR once 10 mg/kg
Text: A ‘complete remission’ (CR) was defined as absence of any palpable tumor and the absence of leukemia, as examined by blood smears. ‘Tumor free survival’ was defined as the time between treatment and reappearance of a well-palpable lymphoma (Schmitt, C. A., et al., “Genetic analysis of chemoresistance in primary murine lymphomas,” Nat. Med. 6: 1029-1035 (2000)). ‘Overall survival’ was defined as the time between treatment and progression to a terminal stage at which the animals were sacrificed. Tumor free and overall survival data were analyzed in the Kaplan-Meier format using the log-rank (Mantel-Cox) test for statistical significance. Whole body fluorescence imaging of living animals was performed as described (Schmitt, C. A., et al., “Dissecting p53 tumor suppressor functions in vivo,” Cancer Cell 1: 289-298 (2002) and Yang, M., et al., “Whole-body optical imaging of green fluorescent protein-expressing tumors and metastases.” Proc. Natl. Acad. Sci. USA 97: 1206-1211 (2000)).
Doxorubicin (Sigma) and cyclophosphamide (Sigma) were dissolved in saline. In treatment studies, control lymphomas were ARF-null tumors arising in an Eμ-myc/ARF−/− background (Schmitt, C. A., et al., “INK4a/ARF mutations accelerate lymphomagenesis and promote chemoresistance by disabling p53,” Genes Dev. 13: 2670-2677 (1999)).
as §1, with “Eμ-Myc/eIF4E” for “PTEN+/−Eμ-Myc”, “mg/kg),” for “mg/kg), RAP (4 mg/kg daily for 5 days), or”, “days) or various combinations. DXR” for “days). RAP, DXR,”, “injection. In combination studies, silvestrol was administered once daily for 5 consecutive days, with DXR administered on day 2. Mice were then palpated regularly and monitored for the disappearance or recurrence of tumors.” for “injection.”
Data are presented as Kaplan-Meier plots using the log-rank (Mantel-Cox) test for statistical significance (SigmaStat software) in FIG. 29, showing the tumor free survival/time to relapse, and FIG. 30, showing the overall survival/time. Time to relapse for mice that were never tumor free was scored as ‘0’ days. Tumor free survival was defined as the time between treatment and reappearance of a palpable lymphoma. Overall survival was defined as the time between treatment and progression to a terminal stage at which the animals were sacrificed. […] With either compound alone, approximately 80% of the animals had developed terminal lymphoma by the 40 day time point. With a combination treatment of silvestrol and DXR, less than 30% of the animals had developed terminal lymphoma by the end test point, well over 60 days.

HeLa cells = assay: [35S]-methionine incorporation into proteins (translation inhibition), 1 h incubation; format: cell-based; conditions: read-out: IC50, inhibition of [35S]-methionine incorporation into proteins
Procedure: Results are the average of three experiments with standard error of the mean shown.
(§2) The ability of rocaglates to induce apoptosis and inhibit protein synthesis was investigated. […] Jurkat cells were exposed to silvestrol or FA and translation inhibition and apoptosis induction were monitored. Translation initiation was measured as the inhibition of [^35S]-methionine incorporation into proteins in a dose-dependent manner. Apoptosis induction was measured as the percentage of tagged living cells measured by flow cytometry and expressed relative to vehicle treated cells.
For translation inhibition experiments, HeLa cells were incubated for 1 h with 10 μM anisomycin, 5 μM of the peptide FMRFA, 0.4 μM silvestrol, or vehicle (MeOH). Cells were then washed with PBS, and incubated with media lacking compound for the indicated times. Ten minutes before harvesting, [^35S]-methionine was added to the culture. The rate of [^35S]-methionine incorporation into TCA-insoluble material was measured and was expressed relative to vehicle (MeOH) treated cells.

eIF4A = eIF4A (Homo sapiens, UniProt P60842); assay: Cross-linking experiments, eIF4A binding to mRNA; format: biochemical; conditions: data not shown
Chain of eIF4A (P60842 whole entry, species assumed): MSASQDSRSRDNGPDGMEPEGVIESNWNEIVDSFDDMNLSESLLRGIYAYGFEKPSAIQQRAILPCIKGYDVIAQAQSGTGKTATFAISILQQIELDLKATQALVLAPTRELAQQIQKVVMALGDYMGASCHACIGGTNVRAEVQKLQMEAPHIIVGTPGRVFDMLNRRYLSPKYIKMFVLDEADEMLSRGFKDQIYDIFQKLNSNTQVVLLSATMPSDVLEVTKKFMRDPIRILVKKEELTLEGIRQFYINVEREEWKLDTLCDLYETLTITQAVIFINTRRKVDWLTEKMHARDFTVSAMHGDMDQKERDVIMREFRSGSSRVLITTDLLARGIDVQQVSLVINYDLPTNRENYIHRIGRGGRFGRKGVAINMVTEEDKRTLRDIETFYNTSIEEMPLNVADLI
Text: Inhibition of translation initiation induces apoptosis (Li et al., 2002, Mol. Cell. Biol. 22, 2853-2861; Polunovsky et al., 2000, J. Biol. Chem. 275, 24776-24780), although the precise mechanism by which this event is triggered is not fully understood. One hypothesis is that changes in the levels or activity of eIF4F mediate the translational regulation of specific genes involved in survival and apoptosis. Gene specific translational control is thought to be mediated by the amount of secondary structure within the 5′ untranslated regions of mRNAs which dictates the eIF4Ac-requirement for ribosome recruitment (Svitkin et al., 2001, RNA 7, 382-394).

Jurkat cells [2] = assay: Apoptosis / living cells by flow cytometry (Annexin V, propidium iodide); format: cell-based; conditions: 13 hr exposure, concentration not given
Procedure: (§3) Jurkat cells were incubated with the indicated silvestrol concentrations for 13 h after which time the rate of [^35S]-methionine incorporation or the percentage of living cells was measured. [^35S]-methionine was added 10 minutes before the end of the incubation period and the rate of incorporation is expressed relative to vehicle (MeOH) treated cells. Results are the average of two experiments with the error of the mean shown. The percentage of living cells was determined by flow cytometry following staining of the cells with Annexin V and propidium iodide. […]
as §2
Jurkat cells were incubated with the indicated silvestrol concentrations for 13 h after which time the rate of [^35S]-methionine incorporation or the percentage of living cells was measured. [^35S]-methionine was added 10 min. before the end of the incubation period and the rate of incorporation is measured relative to vehicle (MeOH) treated cells. […]

Jurkat cells [3] = assay: [35S]-methionine incorporation rate after 13 h silvestrol; format: cell-based; conditions: Homo sapiens, 13 h incubation, read-out: IC50, inhibition of protein synthesis
Procedure: Jurkat cells were incubated with the indicated silvestrol concentrations for 13 h after which time the rate of [^35S]-methionine incorporation or the percentage of living cells was measured. [^35S]-methionine was added 10 minutes before the end of the incubation period and the rate of incorporation is expressed relative to vehicle (MeOH) treated cells. Results are the average of two experiments with the error of the mean shown. The percentage of living cells was determined by flow cytometry following staining of the cells with Annexin V and propidium iodide. The percentage of living cells is expressed relative to vehicle (MeOH) treated and the results are the average of three experiments with the error of the mean shown.
as §3, with “min.” for “minutes”, “measured” for “expressed”, “cells.” for “cells. Results are the average of two experiments with the error of the mean shown.”, “iodide. Silvestrol induced apoptosis in 50% of Jurkat cells following 13 hr exposure (FIG. 27).” for “iodide.”

How did the duration of remissions (Eμ-myc/Akt lymphomas; Akt lymphomas, CTX 300 mg/kg i.p.) turn out when `O=P1(N(CCCl)CCCl)NCCCO1` (centres unmarked) [CTX, cyclophosphamide] was run?
Its duration of remissions is “less than 20 days”.

And the “mice achieving remissions lasting more than 60 days” value (Eμ-myc/Akt lymphomas; Akt lymphomas, CTX 300 mg/kg, RAP 4 mg/kg x 5 d)?
The value was “none”.

What about the complete remission [1] of the same molecule?
The complete remission was “invariably entered a complete remission”.

And the “mice remaining tumor free after 100 days” value [1]?
Its value is over 50%.

For `COc1cccc2c1C(=O)c1c(O)c3c(c(O)c1C2=O)C[C@@](O)(C(=O)CO)C[C@@H]3O[C@H]1C[C@H](N)[C@H](O)[C@H](C)O1` [DXR, doxorubicin], which “tumor free and overall survival relative to control lymphomas” value (Eμ-myc/Akt lymphomas; Akt lymphomas, DXR 10 mg/kg i.p.) is on record?
The value was “substantial reductions in tumor free and overall survival”.

What about the “whole body GFP imaging of tumors” value (Eμ-myc/Akt lymphomas; Akt-GFP secondary tumors, day 21 post treatment) of the same molecule?
The value was “sizable tumors at several sites”.

What about the “tumor response to therapy” value (Eμ-myc/PTEN+/− tumors; DXR) of the same molecule?
Its value is “resistant to DXR”.

What about the “animals that had developed terminal lymphoma” value (Eμ-Myc/eIF4E lymphomas) of the same molecule?
Its value is “approximately 80%”.

What about the “tumor response to therapy” value (Eμ-Myc/eIF4E lymphomas; eIF4E lymphomas) of the same molecule?
Its value is “highly resistant to DXR therapy”.

`COC(=O)[C@H]1[C@@H](OC=O)[C@@]2(O)c3c(OC)cc(OC)cc3O[C@@]2(c2ccc(OC)cc2)[C@@H]1c1ccccc1` [FA, 1-O-formylaglafoline] was tested. Which pIC50 (HeLa cells; 1 h incubation) did it give?
Its pIC50 is about 7.00.

And the “effect on ability of eIF4A to bind mRNA” value (eIF4A)?
Its value is “stimulate the ability of eIF4A to bind mRNA”.

`COC(=O)[C@H]1[C@@H](O)[C@@]2(O)c3c(OC)cc(O[C@@H]4O[C@@H]([C@H](O)CO)CO[C@H]4OC)cc3O[C@@]2(c2ccc(OC)cc2)[C@@H]1c1ccccc1` [silvestrol] was tested. Which “reversal of DXR resistance / sensitization to DXR” value (Eμ-myc/PTEN+/− tumors) did it give?
Its value is “reverse this drug resistance”.

What about the “reversal of DXR resistance / sensitization to DXR” value (Eμ-myc/PTEN+/− tumors; listed as Silvestrol) of the same molecule?
Its value is “sensitizes PTEN^+/−Eμ-Myc tumors to the effects of doxorubicin”.

What about the pIC50 (HeLa cells; Homo sapiens, HeLa, 1 h) of the same molecule?
The pIC50 was 7.70.

And the “cells in which apoptosis was induced” value (Jurkat cells [2])?
The value was 50%.

What about the “animals that had developed terminal lymphoma” value (Eμ-Myc/eIF4E lymphomas) of the same molecule?
The value was “approximately 80%”.

And the “reversal of DXR resistance / sensitization to DXR” value (Eμ-Myc/eIF4E lymphomas)?
Its value is “reversed this drug resistance”.

And the “reversal of DXR resistance / sensitization to DXR” value (Eμ-Myc/eIF4E lymphomas; listed as Silvestrol)?
The value was “sensitizes Eμ-Myc/eIF4E tumors to the effects of DXR”.

What about the pIC50 (Jurkat cells [3]) of the same molecule?
The pIC50 was 9.00.

What about the “effect on ability of eIF4A to bind mRNA” value (eIF4A) of the same molecule?
Its value is “stimulate the ability of eIF4A to bind mRNA”.
